Data from patent US10052317B2, “Method for treating or preventing hot flushes” (Imperial Innovations Limited, priority 2013, dated 2018).
*1 amine or outer side, *2 acyl side, *3 side chain or, on linkers, in order; H or OH if unused. Where a SMILES comes first, the peptide text is derived from it. [ ]: non-standard residue; d: D form. NMeF = CN[C@@H](Cc1ccccc1)C(=O)O; Suc = O=C(CCC(=O)[*:2])[*:1]

Columns and labels:
NKR3 = biological target: T1, NKR3 (Homo sapiens, UniProt P29371); conditions: literature (Spooren 2006; Griebel 2012; Elmore 2011); cited from earlier work
T1 sequence (P29371 1-465): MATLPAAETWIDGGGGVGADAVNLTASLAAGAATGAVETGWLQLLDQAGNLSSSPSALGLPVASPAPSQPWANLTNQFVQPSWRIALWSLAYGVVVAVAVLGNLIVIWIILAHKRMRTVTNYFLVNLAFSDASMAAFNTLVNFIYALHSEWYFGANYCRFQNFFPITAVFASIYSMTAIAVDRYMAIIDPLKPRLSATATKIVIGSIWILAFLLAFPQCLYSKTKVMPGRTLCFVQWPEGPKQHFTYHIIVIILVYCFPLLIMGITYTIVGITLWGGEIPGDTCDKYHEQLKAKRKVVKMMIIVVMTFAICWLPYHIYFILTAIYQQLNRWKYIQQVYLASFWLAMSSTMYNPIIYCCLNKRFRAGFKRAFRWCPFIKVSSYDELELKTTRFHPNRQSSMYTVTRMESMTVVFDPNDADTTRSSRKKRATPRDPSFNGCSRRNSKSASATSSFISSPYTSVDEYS

ovariectomised rats = conditions: Dacks et al. 2011; cited from earlier work
healthy male subjects = assay: Dose-finding study with 90-min intravenous infusion of NKB to healthy men; assay type: in vivo, human
Excerpt: Human sequence neurokinin B was synthesised by Bachem Holding AG (Bubendorf, Switzerland), and purified by reverse-phase high performance liquid chromatography (HPLC). Electrospray mass spectroscopy and amino acid analysis confirmed identity of the peptide (lot:3007511). The Limulus amoebocyte lysate test detected no endotoxin (Associates of Cape Cod, Liverpool, UK), and bacterial culture was sterile (Department of Microbiology, Hammersmith Hospital, London, UK) in samples of neurokinin B peptide. Vials of freeze-dried neurokinin B were stored at −20° C. and reconstituted in 0.9% saline.
23 healthy male subjects participated in the study (mean age of 23 subjects: 29.0±1.3 years; mean body mass index of 23 subjects: 23.3±0.3 kg/m2), following ethical approval (reference:10/H0707/68) and written consent, in accordance with The Declaration of Helsinki. No subjects had any history of hot flushes, deficient levels of sex hormones, or were receiving any regular medications.
Studies were performed in the Clinical Investigation Unit, during which subjects asked to lay supine. This study was blinded to subjects but not investigators. NKB was dissolved in a vehicle consisting of saline containing Gelofusin (5% vol/vol) (B. Braun Medical, Sheffield, UK) to minimize peptide adsorption. […] Heart rate, blood pressure, and adverse symptoms were recorded at regular intervals. […]

healthy female subjects = assay: 180-min intravenous infusion of NKB to healthy women, hot flush symptom diary; assay type: in vivo, human
Protocol: Eight healthy female subjects participated in the study, following ethical approval (reference: 10/H0707/68) and written consent, in accordance with The Declaration of Helsinki. All subjects had regular periods. No subjects had any history of hot flushes, deficient levels of sex hormones, or were receiving any regular medications.
(§1) Human sequence neurokinin B was obtained and used as described above.
[…] Continuous cardiac monitoring was performed. Heart rate, blood pressure, and adverse symptoms were recorded at regular intervals. Participants were asked to complete a symptom diary in order to measure subjective frequency and problem rating of hot flushes during each study visit. All subjects also completed a questionnaire at the end of each study visit to summarise the symptoms that they experienced that day. Data was analysed by an investigator in a blinded manner.
Data are presented as mean±standard error of mean (SEM). Multiple means were compared using one-way ANOVA with Dunnett's post-hoc test. Pairs of means were compared using paired two-tailed t-tests.

[1] = system: healthy female volunteers; assay: Symptom assessment study during 30-min iv infusion of NKB to healthy women; assay type: in vivo, human; conditions: 5.12 nmol/kg/min iv for 30 min
Excerpt: (§2) Five healthy female volunteers participated in the study (mean age 37.8±1.7y; mean body mass index 21.9±0.7 kg/m2), following ethical approval (reference: 10/H0707/68) and written consent, in accordance with The Declaration of Helsinki. Participants had no medical problems, were not on any regular medication and had regular menstrual cycles. Participants attended in the mornings and during the follicular phase of their menstrual cycle to minimise physiological changes in body temperature occurring during sleep and associated with ovulation (1) (Day of menstrual cycle: 8.0±0.9)
as §1
Participants were admitted in the morning to the Clinical Investigation Unit between days 3 and 10 of their menstrual cycle, and asked to lay supine for the 180 minute study duration (FIG. 2). A cannula was inserted into a large forearm vein and NKB (5.12 nmol/kg/min) was administered by intravenous (iv) infusion for 30 min commencing at t=90 min. This dose of NKB was selected as it was the maximal dose that was well-tolerated dose experiment 1, above. NKB was dissolved in saline containing gelofusin (5% vol/vol) (B. Braun Medical, Sheffield, UK) to minimize peptide adsorption (Kraegen E W, Lazarus L, Meler H, Campbell L, Chia Y O, Br Med J (1974), 3:464-466). Participants (but not investigators) were blinded as to the identity of the infusion (NKB or vehicle, however all participants received NKB). Participants were informed before the study that they may experience body sensations or symptoms and they were asked to report these in real time during the study. Participants were not specifically informed that they may experience ‘hot flush’ symptoms so as to minimise reporting bias.
Data are presented as mean±standard error of mean (SEM). Means were compared using two-tailed paired t-tests. p<0.05 was considered statistically significant.

[2] = system: healthy female volunteers; assay: Double-blinded placebo-controlled physiological assessment study during iv infusion of NKB and vehicle to healthy women; assay type: in vivo, human; conditions: for mean HR / mean skin temperature by skin probe / mean skin temperature by thermal imaging camera / mean MAP: NKB infusion
Excerpt: as §2, with “Ten” for “Five”, “35.3±1.3y;” for “37.8±1.7y;”, “22.1±0.7” for “21.9±0.7”, “5.9±0.6)” for “8.0±0.9)”
as §1
Having observed in Example 3 that participants reported flushing during NKB infusion, a double-blinded placebo-controlled study was carried out. This was performed in a climate-controlled Clinical Research Unit with ambient temperature 24° C. and humidity 50% as has been established in previous studies to be a suitable environment to investigate menopausal flushing (e.g. de Bakker I P, Everaerd W, Maturitas (1996) 25:87-98; Carpenter J S, Gilchrist J M, Chen K, Gautam S, Freedman R R, Menopause: The Journal of The North American Menopause Society (2004) 11:375-381). Participants were admitted on a morning between days 3 and 10 of their menstrual cycle, and asked to lay supine for the 270 minute study duration (FIG. 3). A cannula was inserted into a large forearm vein in both arms: one for collection of blood, and the second for vehicle (gelofusin) or NKB infusion. 30 minute iv infusion of either NKB ([…]) or vehicle (equivalent volume) were commenced at t=60 min and t=180 min, by an investigator blinded to the identity of each infusion. Each participant received one NKB infusion and one vehicle infusion, randomised and prepared by an independent investigator. Participants were informed that they could receive any of the following: NKB followed by vehicle; vehicle followed by NKB; NKB twice; vehicle twice. This strategy ensured integrity of blinding, since any symptoms experienced during the first infusion would not allow participants to automatically deduce the identity of the second infusion.
In order to prevent confounding factors which may affect flushing, participants were asked to refrain from hot drinks, caffeine, alcohol and spicy foods for 12 hours preceding the study start and for the duration of the study. All participants wore light cotton standard hospital gowns. All studies commenced between 9.30-10.30 am. Two experienced physicians were in attendance at all times. Symptoms, heart rate, blood pressure, sweating and skin temperature monitoring were performed as detailed below:
Heart Rate (HR) and Mean Arterial Blood Pressure (MAP): HR was recorded minutely for 20 minutes pre-infusion until 20 minutes post-infusion. MAP was recorded at 5 minute intervals (to minimize discomfort) for 20 minutes pre-infusion until 20 minutes post-infusion. At other times HR and MAP were recorded at 10 minute intervals (FIG. 3). MAP (in mmHg) was calculated using the following standard formula: MAP=((2×diastolic BP)+systolic BP)/3.
Skin Temperature: Skin temperature was recorded each minute for 20 minutes pre-infusion until 20 minutes post-infusion and at 10 minute intervals at other times. Skin temperature was measured by skin temperature probe attached to the neck (Mindray, Huntingdon, UK) and by thermal imaging camera (T440Bx, Flir, Wilsonville, USA). Thermal imaging temperature values were determined by in-built software which recorded the highest temperature point in a box constructed to contain the shoulders and head of the participant.
Skin Conductance: Increased skin conductance is an objective marker of sweating which occurs in menopausal flushing. […]

[3] = 5.12 nmol/kg/h iv for 30 min, of the flushing participants
[4] = during flushing symptoms, p<0.05 vs. pre-symptoms
[5] = entire 30 minute NKB infusion period vs vehicle infusion period
[6] = over the entire duration of the infusion

CC[C@H](NC(=O)c1c(O)c(-c2ccccc2)nc2ccccc12)c1ccccc1 [Talnetant, 3-hydroxy-2-phenyl-N-(1-phenylpropyl)quinoline-4-carboxamide]
selectivity for NKR3 over NKR1 and NKR2 (NKR3): selective for NKR3 over NKR1 and NKR2

CSCC[C@H](NC(=O)[C@H](CC(C)C)NC(=O)CNC(=O)[C@H](Cc1ccccc1)N(C)C(=O)[C@H](Cc1ccccc1)NC(=O)[C@H](CC(=O)O)NC(=O)CCC(=O)O)C(N)=O [senktide] (Suc-DF[NMeF]GLM-NH2)
core temperature (ovariectomised rats): reduced core temperature

CC(=O)N(C)C1(c2ccccc2)CCN(CCC[C@]2(c3ccc(Cl)c(Cl)c3)CCCN(C(=O)c3ccccc3)C2)CC1 [Osanetant, (R)-N-{{3-[1-Benzoyl-3-(3,4-dichlorophenyl)piperidin-3-yl]prop-1-yl}-4-phenylpiperidin-4-yl}-N-methylacetamine]
selectivity for NKR3 over NKR1 and NKR2 (NKR3): selective for NKR3 over NKR1 and NKR2

NKB: Human sequence neurokinin B synthesised by Bachem, purified by reverse-phase HPLC; tachykinin peptide, natural ligand for NKR3
time to full resolution of symptoms after administration was discontinued (healthy male subjects; 10.24 nmol/kg/h): ≤ 5 min | reproductive hormone secretion (healthy male subjects; intravenous administration): did not stimulate significant reproductive hormone secretion | hot flushes experienced (healthy female subjects; healthy women, iv infusion 0.64 nmol/kg/h (lowest dose)): No hot flushes were experienced | healthy women who experienced hot flushes (healthy female subjects; iv infusion 1.28 nmol/kg/h): 1/6 | healthy women who experienced hot flushes (healthy female subjects; iv infusion 2.56 nmol/kg/h): 2/7 | healthy women who experienced hot flushes (healthy female subjects; iv infusion 5.12 nmol/kg/h (highest dose)): 7/8 | mean number of hot flushes per visit (healthy female subjects; iv infusion 5.12 nmol/kg/h, mean±SEM, P<0.01 vs. placebo (0)): 1.13±0.30 | participants experiencing flushing who reported a single flushing episode [1]: Three of the four | participants who experienced three flushing episodes [1]: one | participants reporting flushing during NKB infusion ([1]; P<0.05 vs. vehicle): four out of the five | onset of first flushing episodes after NKB infusion initiation ([2]; 5.12 nmol/kg/h iv for 30 min): 1 to 12 min | severity of flushing symptoms ([2]; 5.12 nmol/kg/h iv for 30 min): mild to strong | participants who experienced flushing during NKB infusion ([2]; 5.12 nmol/kg/h iv for 30 min, double-blinded): eight out of ten | participants with a single flushing episode [2, 3]: five | participants with three flushing episodes [2, 3]: two | participants with two flushing episodes [2, 3]: one | participants with concordant increases in sternal skin conductance at the time of flushing ([2]; 5.12 nmol/kg/h iv, of the flushing participants): six of the eight | mean HR [2, 4]: 76.2±1.6 bpm | mean skin temperature by skin probe [2, 4]: 34.7±0.3 Celsius | mean skin temperature by thermal imaging camera [2, 4]: 36.8±0.1 Celsius | mean MAP ([2]; during flushing symptoms, p=ns vs. pre-symptoms): 82.5±2.2 mmHg | mean MAP ([2]; pre-symptom period): 83.2±8.6 mmHg | mean skin temperature by skin probe ([2]; pre-symptom period): 34.6±0.2 Celsius | mean skin temperature by thermal imaging camera ([2]; pre-symptom period): 36.7±0.1 Celsius | mean HR ([2]; pre-symptom period, mean±SEM): 70.3±2.1 bpm | change in serum FSH [2, 5]: No significant changes | change in serum LH [2, 5]: No significant changes | change in serum estradiol [2, 5]: No significant changes | overall change in HR, NKB vs vehicle infusion [2, 6]: No overall changes | overall change in mean arterial blood pressure (MAP), NKB vs vehicle infusion [2, 6]: No overall changes | overall change in skin temperature (skin probe or thermal imaging camera), NKB vs vehicle infusion [2, 6]: No overall changes
